Ratio and IC50 data for eleven molecules are collected here from patent US11254686B1 (Corvus Pharmaceuticals, Inc., priority 2017, dated 2022).

Broadly, the IC50 is the concentration that inhibits the measured activity by half.

In test [1] the target is adenosine A2B receptor (Homo sapiens (Human), UniProt P29275). Kind of test: Adenosine receptor activity assay (Table 1), A2B activity. It counts as biochemical. To be noted: for Ratio: A2A activity to A2B activity (A2A/A2B); for IC50: read-out: Ave A2B cAMP IC50.
adenosine A2B receptor, sequence (P29275 whole entry): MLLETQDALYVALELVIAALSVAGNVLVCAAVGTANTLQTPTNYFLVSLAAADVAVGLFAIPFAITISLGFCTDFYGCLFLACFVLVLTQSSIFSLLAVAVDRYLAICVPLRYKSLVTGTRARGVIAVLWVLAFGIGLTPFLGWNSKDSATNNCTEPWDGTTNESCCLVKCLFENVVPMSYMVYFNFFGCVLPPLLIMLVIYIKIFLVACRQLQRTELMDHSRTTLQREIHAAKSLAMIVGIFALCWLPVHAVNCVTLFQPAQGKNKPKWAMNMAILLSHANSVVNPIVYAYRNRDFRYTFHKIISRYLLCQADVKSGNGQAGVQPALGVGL
Test [2] addresses adenosine A2A receptor (Homo sapiens (Human), UniProt P29274). The experiment in a line: Adenosine receptor activity assay (Table 1), A2A activity. In kind it is biochemical. To be noted: read-out: Ave A2A cAMP IC50.

adenosine A2A receptor, sequence (P29274 whole entry): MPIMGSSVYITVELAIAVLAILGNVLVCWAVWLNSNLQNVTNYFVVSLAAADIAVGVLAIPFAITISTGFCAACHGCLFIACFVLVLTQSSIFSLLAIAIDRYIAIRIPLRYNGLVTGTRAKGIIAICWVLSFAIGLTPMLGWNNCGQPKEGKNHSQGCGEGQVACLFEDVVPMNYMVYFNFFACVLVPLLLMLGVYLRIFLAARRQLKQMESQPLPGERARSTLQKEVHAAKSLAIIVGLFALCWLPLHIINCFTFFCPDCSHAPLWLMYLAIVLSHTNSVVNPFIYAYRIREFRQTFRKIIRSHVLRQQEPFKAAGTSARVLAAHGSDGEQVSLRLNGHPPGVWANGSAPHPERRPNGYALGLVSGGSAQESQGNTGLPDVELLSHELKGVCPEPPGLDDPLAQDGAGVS

Consider `C[C@H](Nc1nc(C(=O)N2CCN(CCCc3ccccc3)CC2)c2sccc2n1)c1cccnc1` [Example Z69, (S)-(4-(3-Phenylpropyl)piperazin-1-yl)(2-((1-(pyridin-3-yl)ethyl)amino)thieno[3,2-d]pyrimidin-4-yl)methanone], for which the Ratio in test [1] came to 0.92. Also, the concentration for half-maximal inhibition (IC50) in test [1] and in test [2] was more than 500 nM each time.
For the molecule `O=C(c1nc(NCc2cccc(O)n2)nc2ccsc12)N1CCCC1` [Example Z70, (2-(((6-Hydroxypyridin-2-yl)methyl)amino)thieno[3,2-d]pyrimidin-4-yl)(pyrrolidin-1-yl)methanone], the Ratio in test [1] is 10.89. Also, the values for the IC50 in test [1] and in test [2] were 50 to 100 nM and more than 500 nM, respectively.
The corresponding values for `O=C(c1nc(NCc2cccc(F)n2)nc2ccsc12)N1CCCC1` [Example Z71, (2-(((6-Fluoropyridin-2-yl)methyl)amino)thieno[3,2-d]pyrimidin-4-yl)(pyrrolidin-1-yl)methanone] are 12.97, 50 to 100 nM and more than 500 nM.
The corresponding values for `O=C(NCc1ccc(C(F)(F)F)nc1)c1nc(NCc2ccc(C(F)(F)F)nc2)nc2ccsc12` [Example Z72, N-((6-(Trifluoromethyl)pyridin-3-yl)methyl)-2-(((6-(trifluoromethyl)pyridin-3-yl)methyl)amino)thieno[3,2-d]pyrimidine-4-carboxamide] are 1.00, more than 500 nM and more than 500 nM.
The corresponding values for `O=C(NCc1cccc(F)c1)c1nc(NCc2cccc(F)c2)nc2ccsc12` [Example Z74, N-(3-Fluorobenzyl)-2-((3-fluorobenzyl)amino)thieno[3,2-d]pyrimidine-4-carboxamide] are 1.74, 100 to 500 nM and 100 to 500 nM.
`O=C(c1nc(NCc2ccc(C(F)(F)F)nc2)nc2ccsc12)N1CC[C@H](O)C1` [Example Z75, (S)-(3-Hydroxypyrrolidin-1-yl)(2-(((6-(trifluoromethyl)pyridin-3-yl)methyl)amino)thieno[3,2-d]pyrimidin-4-yl)methanone]: in test [1], the Ratio is reported as 1.00. The half-inhibitory concentration (IC50) in test [1] and in test [2] was more than 500 nM throughout.
For the molecule `O=C(c1nc(NCc2ccc(C(F)(F)F)nc2)nc2ccsc12)N1CCCC1` [Example Z76, Pyrrolidin-1-yl(2-(((6-(trifluoromethyl)pyridin-3-yl)methyl)amino)thieno[3,2-d]pyrimidin-4-yl)methanone], in test [1], the Ratio worked out at 0.22 and the IC50 is more than 500 nM. Also, in test [2], the IC50 is 100 to 500 nM.
With `CC(CNC(=O)c1nc(N[C@@H](C)c2ccccn2)nc2ccsc12)Oc1cccnc1` (stereo partly drawn) [Example Z77, 2-(((S)-1-(Pyridin-2-yl)ethyl)amino)-N-(2-(pyridin-3-yloxy)propyl)thieno[3,2-d]pyrimidine-4-carboxamide], the Ratio in test [1] came to 3.77. The half-inhibitory concentration (IC50) in test [1] and in test [2] was 100 to 500 nM throughout.
For `O=C(NCc1ccccn1)c1nc(NCc2ccccn2)nc2ccsc12` [Example Z78, N-(Pyridin-2-ylmethyl)-2-((pyridin-2-ylmethyl)amino)thieno[3,2-d]pyrimidine-4-carboxamide], in test [1], the Ratio is recorded as 2.02 and the IC50 was in the range of 50 to 100 nM. In addition, the IC50 in test [2] was 100 to 500 nM.
The corresponding values for `C[C@H](Nc1nc(C(=O)NCc2ccc(C(F)(F)F)nc2)c2sccc2n1)c1ccccn1` [Example Z79, (S)-2-((1-(Pyridin-2-yl)ethyl)amino)-N-((6-(trifluoromethyl)pyridin-3-yl)methyl)thieno[3,2-d]pyrimidine-4-carboxamide] are 1.20, 50 to 100 nM and 100 to 500 nM.
As for `O=C(c1nc(NCc2cccc(F)c2)nc2ccsc12)N1CCN(CCCc2ccccc2)CC1` [Example Z80, (2-((3-Fluorobenzyl)amino)thieno[3,2-d]pyrimidin-4-yl)(4-(3-phenylpropyl)piperazin-1-yl)methanone], in test [1], the Ratio came to 1.00. The IC50 in test [1] and in test [2] was more than 500 nM in each case.
